The values that follow are results of earlier work, collected in US20250161335A1, “Drug and Method for Nucleoside (Acid) Drug Therapy of Limiting Chronic Hepatitis B” (Shanghai Hep Pharmaceutical Co., Ltd., priority 2022, published 2025).

This series deals with HBV. The following applies: patients treated with nucleoside (acid) medicine.

SMILES strings stand for the structures.

Take `C[C@H](Cn1cnc2c(N)ncnc21)OCP(=O)(O)O` [tenofovir]: the “inhibition rate on viral DNA” value was “about 70%”.
